Laboratory results as given in paper PMC11233931, “Remodeling tumor‐associated macrophage for anti‐cancer effects by rational design of irreversible inhibition of mitogen‐activated protein kinase‐activated protein kinase 2” (MedComm, 2024).

Experiments:
Experiment in all cases: Eurofins kinase selectivity profile against 380 other human recombinant kinases (Table S2)
Type in all cases: biochemical
[1] = target: T1, 380 human recombinant protein kinases (Homo sapiens, UniProt O75716); settings: STK16(h), read-out: Inhibition rate (%)
T1 construct: purchased Eurofins (Celle Lévescault)
T1 sequence (O75716 whole entry): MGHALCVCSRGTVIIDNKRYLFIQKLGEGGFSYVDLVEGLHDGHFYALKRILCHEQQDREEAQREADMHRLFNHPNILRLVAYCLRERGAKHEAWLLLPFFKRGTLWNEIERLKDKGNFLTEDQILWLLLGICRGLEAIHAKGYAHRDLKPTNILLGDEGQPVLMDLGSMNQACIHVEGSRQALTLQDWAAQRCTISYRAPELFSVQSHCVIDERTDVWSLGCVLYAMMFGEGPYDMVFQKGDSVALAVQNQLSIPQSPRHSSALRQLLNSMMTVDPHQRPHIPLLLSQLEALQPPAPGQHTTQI
Method in brief: (§1)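 Outsourced panel: 380 human recombinant kinases; inhibitor tested at various concentrations; purpose: MK2 selectivity check.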

[2] = target: T2, 380 human recombinant protein kinases (Homo sapiens, UniProt P36507); settings: MEK2(h), read-out: Inhibition rate
T2 construct: purchased Eurofins (Celle Lévescault)
T2 sequence (P36507 whole entry): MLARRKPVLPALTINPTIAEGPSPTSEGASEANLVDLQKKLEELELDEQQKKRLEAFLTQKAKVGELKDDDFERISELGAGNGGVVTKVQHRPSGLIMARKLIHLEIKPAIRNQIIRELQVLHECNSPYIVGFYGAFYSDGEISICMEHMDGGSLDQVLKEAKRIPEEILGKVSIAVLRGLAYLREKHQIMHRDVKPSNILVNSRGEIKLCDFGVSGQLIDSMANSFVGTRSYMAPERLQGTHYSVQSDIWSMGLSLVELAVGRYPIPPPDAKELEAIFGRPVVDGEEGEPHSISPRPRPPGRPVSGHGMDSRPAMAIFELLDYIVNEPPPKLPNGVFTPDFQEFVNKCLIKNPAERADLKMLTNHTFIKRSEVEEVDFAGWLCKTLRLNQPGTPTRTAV
Method in brief: as §1

[3] = target: T3, 380 human recombinant protein kinases (Homo sapiens, UniProt P36888); settings: Flt3(h), read-out: Inhibition rate
T3 construct: purchased Eurofins (Celle Lévescault)
T3 sequence (P36888 27-993): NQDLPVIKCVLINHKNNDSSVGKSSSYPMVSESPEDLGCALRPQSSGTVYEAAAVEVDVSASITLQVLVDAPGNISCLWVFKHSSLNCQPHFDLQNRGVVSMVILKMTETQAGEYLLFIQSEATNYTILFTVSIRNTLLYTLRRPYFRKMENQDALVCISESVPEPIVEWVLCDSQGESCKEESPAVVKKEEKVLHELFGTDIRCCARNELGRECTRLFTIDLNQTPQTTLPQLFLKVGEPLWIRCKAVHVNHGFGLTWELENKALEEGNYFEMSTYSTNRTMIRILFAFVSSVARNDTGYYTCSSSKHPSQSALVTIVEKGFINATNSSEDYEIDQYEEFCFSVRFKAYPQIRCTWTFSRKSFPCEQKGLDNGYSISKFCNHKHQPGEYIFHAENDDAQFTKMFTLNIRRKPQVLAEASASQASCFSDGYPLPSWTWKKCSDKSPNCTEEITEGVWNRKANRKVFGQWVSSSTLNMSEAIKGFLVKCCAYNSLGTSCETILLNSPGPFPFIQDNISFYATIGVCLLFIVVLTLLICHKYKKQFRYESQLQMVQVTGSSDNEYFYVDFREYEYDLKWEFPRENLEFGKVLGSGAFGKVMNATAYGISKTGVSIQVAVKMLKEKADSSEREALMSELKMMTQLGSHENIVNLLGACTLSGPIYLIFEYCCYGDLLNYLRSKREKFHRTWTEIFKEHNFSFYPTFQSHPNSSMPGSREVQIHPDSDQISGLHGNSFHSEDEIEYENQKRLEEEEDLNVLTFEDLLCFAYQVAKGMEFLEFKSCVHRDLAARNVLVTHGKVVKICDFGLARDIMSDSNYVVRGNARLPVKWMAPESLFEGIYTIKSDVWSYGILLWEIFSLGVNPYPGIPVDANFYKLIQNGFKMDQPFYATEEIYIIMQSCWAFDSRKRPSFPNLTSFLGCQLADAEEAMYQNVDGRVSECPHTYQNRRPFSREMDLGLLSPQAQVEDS
Method in brief: as §1

[4] = target: T4, 380 human recombinant protein kinases (Homo sapiens, UniProt P48729); settings: CK1α(h), read-out: Inhibition rate
T4 construct: purchased Eurofins (Celle Lévescault)
T4 sequence (P48729 whole entry): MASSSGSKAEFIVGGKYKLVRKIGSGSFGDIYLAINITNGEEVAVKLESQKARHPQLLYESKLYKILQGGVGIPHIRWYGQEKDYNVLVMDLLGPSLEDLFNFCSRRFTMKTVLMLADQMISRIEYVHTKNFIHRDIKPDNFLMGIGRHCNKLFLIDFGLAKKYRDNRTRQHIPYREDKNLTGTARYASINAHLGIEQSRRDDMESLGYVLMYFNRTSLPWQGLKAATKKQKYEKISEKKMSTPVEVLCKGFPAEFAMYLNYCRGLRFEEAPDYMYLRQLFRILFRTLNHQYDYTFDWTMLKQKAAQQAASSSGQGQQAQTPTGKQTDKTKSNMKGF
Method in brief: as §1

[5] = target: T5, 380 human recombinant protein kinases (Homo sapiens, UniProt Q05655); settings: PKCδ(h), read-out: Inhibition rate
T5 construct: purchased Eurofins (Celle Lévescault)
T5 sequence (Q05655 whole entry): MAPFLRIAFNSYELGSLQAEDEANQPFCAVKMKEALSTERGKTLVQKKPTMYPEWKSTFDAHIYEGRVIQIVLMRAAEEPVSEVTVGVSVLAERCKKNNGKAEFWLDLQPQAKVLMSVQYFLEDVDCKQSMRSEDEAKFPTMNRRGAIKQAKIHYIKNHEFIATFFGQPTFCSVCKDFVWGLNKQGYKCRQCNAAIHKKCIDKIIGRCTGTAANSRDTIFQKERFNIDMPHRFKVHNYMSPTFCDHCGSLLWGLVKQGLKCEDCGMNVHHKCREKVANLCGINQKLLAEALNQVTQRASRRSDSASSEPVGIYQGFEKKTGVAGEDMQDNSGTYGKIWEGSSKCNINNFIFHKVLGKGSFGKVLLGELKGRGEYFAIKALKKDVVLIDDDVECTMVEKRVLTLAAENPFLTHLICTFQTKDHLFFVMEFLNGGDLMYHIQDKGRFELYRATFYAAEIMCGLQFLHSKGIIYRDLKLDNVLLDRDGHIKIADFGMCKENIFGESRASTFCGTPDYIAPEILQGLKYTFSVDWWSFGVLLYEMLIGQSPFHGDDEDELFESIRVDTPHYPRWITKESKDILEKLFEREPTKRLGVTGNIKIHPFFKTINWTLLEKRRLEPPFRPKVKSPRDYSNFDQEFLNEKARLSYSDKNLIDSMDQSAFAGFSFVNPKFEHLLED
Method in brief: as §1

[6] = target: T6, 380 human recombinant protein kinases (Homo sapiens, UniProt Q12851); settings: GCK(h), read-out: Inhibition rate
T6 construct: purchased Eurofins (Celle Lévescault)
T6 sequence (Q12851 1-820): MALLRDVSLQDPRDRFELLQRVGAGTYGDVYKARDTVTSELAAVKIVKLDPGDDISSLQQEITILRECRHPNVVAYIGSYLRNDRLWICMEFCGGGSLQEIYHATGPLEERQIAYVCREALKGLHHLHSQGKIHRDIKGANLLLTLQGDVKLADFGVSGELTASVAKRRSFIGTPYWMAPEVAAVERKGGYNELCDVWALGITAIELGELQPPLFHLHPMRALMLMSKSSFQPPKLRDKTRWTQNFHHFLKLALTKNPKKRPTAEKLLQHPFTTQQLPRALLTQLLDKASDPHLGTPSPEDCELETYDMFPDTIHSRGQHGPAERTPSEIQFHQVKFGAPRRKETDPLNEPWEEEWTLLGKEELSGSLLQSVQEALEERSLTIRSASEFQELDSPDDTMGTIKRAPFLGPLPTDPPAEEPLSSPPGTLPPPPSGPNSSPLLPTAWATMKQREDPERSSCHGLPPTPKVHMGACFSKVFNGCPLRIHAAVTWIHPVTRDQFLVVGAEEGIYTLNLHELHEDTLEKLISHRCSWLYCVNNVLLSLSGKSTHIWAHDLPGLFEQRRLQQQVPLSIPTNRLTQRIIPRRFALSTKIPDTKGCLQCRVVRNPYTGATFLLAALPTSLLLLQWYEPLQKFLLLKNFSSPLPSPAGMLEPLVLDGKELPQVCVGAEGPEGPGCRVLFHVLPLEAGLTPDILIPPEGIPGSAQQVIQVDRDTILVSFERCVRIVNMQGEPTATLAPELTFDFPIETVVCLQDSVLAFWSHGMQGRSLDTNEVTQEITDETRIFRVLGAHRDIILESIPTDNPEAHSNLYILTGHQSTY
Method in brief: as §1

[7] = target: T7, 380 human recombinant protein kinases (Homo sapiens, UniProt Q96QT4); settings: ChaK1(h), read-out: Inhibition rate
T7 construct: purchased Eurofins (Celle Lévescault)
T7 sequence (Q96QT4 whole entry): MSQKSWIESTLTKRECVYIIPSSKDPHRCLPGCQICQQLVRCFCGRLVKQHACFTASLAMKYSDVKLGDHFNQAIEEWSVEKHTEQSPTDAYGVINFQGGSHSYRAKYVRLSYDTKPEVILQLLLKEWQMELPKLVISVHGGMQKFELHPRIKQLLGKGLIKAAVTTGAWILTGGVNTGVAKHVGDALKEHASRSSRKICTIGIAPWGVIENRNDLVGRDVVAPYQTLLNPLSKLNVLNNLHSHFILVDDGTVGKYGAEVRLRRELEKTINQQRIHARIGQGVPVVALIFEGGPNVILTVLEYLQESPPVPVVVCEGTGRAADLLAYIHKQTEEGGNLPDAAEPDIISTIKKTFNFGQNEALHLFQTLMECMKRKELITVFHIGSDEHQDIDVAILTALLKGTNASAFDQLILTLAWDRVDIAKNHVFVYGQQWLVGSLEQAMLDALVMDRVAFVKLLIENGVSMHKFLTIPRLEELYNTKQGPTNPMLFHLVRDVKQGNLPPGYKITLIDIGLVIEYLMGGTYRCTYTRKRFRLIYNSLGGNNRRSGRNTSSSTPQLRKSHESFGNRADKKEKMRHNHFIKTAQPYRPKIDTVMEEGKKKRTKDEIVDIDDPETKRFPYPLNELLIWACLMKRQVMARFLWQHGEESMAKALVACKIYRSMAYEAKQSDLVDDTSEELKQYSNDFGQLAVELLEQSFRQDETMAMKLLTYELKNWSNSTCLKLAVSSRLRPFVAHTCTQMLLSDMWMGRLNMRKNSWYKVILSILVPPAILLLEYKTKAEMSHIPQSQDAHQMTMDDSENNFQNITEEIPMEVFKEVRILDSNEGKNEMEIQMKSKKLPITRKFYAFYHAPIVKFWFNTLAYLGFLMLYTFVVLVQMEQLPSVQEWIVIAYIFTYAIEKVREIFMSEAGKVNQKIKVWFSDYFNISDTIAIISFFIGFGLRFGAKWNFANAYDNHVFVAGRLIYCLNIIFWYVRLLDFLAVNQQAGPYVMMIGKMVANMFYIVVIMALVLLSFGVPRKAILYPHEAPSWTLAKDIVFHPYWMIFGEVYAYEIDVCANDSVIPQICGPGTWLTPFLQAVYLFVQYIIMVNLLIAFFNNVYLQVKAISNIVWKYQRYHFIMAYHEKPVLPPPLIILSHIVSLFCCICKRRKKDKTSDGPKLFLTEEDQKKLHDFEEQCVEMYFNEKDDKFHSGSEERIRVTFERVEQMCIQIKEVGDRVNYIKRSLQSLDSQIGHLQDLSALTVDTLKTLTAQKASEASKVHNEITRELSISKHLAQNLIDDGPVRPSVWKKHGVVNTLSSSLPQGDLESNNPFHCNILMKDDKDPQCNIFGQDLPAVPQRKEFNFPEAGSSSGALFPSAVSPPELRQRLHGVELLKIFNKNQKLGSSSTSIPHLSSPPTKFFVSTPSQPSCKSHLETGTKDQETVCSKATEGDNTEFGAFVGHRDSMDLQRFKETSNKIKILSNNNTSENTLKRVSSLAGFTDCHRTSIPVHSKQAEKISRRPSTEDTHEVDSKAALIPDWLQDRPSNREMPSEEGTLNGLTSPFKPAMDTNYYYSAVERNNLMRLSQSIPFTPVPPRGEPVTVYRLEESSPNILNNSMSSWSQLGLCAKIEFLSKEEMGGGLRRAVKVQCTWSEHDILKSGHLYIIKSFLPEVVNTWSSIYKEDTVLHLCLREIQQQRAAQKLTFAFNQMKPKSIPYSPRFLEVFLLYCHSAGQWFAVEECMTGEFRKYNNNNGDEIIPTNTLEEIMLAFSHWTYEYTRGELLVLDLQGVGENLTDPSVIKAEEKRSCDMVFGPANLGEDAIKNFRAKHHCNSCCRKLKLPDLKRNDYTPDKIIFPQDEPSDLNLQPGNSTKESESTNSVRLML
Method in brief: as §1

C=CC(=O)Nc1cc(-c2cc(-c3cc4c([nH]3)CCNC4=O)ccn2)ccc1OC(F)(F)F [compound 11]
inhibition at 0.01 µM ([1]; 10 nM): 0%
inhibition at 0.1 µM ([1]; 100 nM): -3%
inhibition at 1 µM ([1]; 1000 nM): 11%
inhibition at 0.01 µM ([2]; 10 nM): -4%
inhibition at 0.1 µM ([2]; 100 nM): 4%
inhibition at 1 µM ([2]; 1000 nM): 6%
inhibition at 0.01 µM ([3]; 10 nM): -12%
inhibition at 0.1 µM ([3]; 100 nM): -5%
inhibition at 1 µM ([3]; 1000 nM): 24%
inhibition at 0.01 µM ([4]; 10 nM): 15%
inhibition at 0.1 µM ([4]; 100 nM): 30%
inhibition at 1 µM ([4]; 1000 nM): 70%
inhibition at 0.01 µM ([5]; 10 nM): 1%
inhibition at 0.1 µM ([5]; 100 nM): 14%
inhibition at 1 µM ([5]; 1000 nM): 9%
inhibition at 0.01 µM ([6]; 10 nM): -2%
inhibition at 0.1 µM ([6]; 100 nM): -9%
inhibition at 1 µM ([6]; 1000 nM): 17%
inhibition at 0.01 µM ([7]; 10 nM): -7%
inhibition at 0.1 µM ([7]; 100 nM): 1%
inhibition at 1 µM ([7]; 1000 nM): -5%
